Where two headings read alike, the source gives them in different places.
What was measured:
DU145 [1] = test: Colony formation assay, DU145; format: cell-based; conditions: 1 or 2 µM, vs vehicle
Method: (§1) This assay was performed as previously described. The DU145 and PC-3 cells were incubated with RP-010 (1 or 2 µM) for 24 h. […], the medium was discarded and cells were trypsinized with 0.25% trypsin, 2.21-mM EDTA, and then harvested, counted, and reseeded in 6-well plates at a low density (500 cell/well). The cells were allowed to form colonies for 10–14 days at 37 °C, with the medium being changed every other day. Subsequently, methanol was used to fix the colonies formed in each plate, followed by staining the colonies with 0.1% crystal violet dye for 30 min. Finally, colonies were viewed and counted under an EVOS microscope (Themo Fisher Scientific, Wayne, MI, USA). The colony formation rate equation was applied for each compound: Colony formation rate = the number of colonies/numbers of seeded cells × 100%.

DU145 [2] = test: Wound healing assay, DU145; format: cell-based; conditions: 0.5, 1, 2 or 4 µM, 12-48 h, vs vehicle
Method: This assay was conducted using DU145 and PC-3 cells as previously described. Upon confluence, 200 μL sterile tips were used to create a wound by gently scratching the complete cell monolayer. Sterile PBS was used to wash the cells several times to remove any floating cells. Different concentrations of the test compound were prepared in the culture media and added immediately after wound formation. The closure of the wound was observed by taking pictures at different time points by the EVOS microscope (Thermo Fisher Scientific, Wayne, MI, USA). Finally, the area of the wounds, at different time points, was calculated using Image J software (NIH, Bethesda, MD, USA).

HCT115 = test system: HCT115; design: method as in PMID 28759878; conditions: colon cancer cell line; cited from earlier work
CHO = test: MTT cytotoxicity assay, CHO cells; format: cell-based; conditions: Cricetulus griseus, Chinese hamster ovarian cell line, means ± SDs of three independent experiments, read-out: IC50 ± SD, Non-Prostate Cells, CHO
Method: (§2) All the cells were cultured as adherent monolayers in culture flasks, and were used to determine the anti-cancer efficacy of RP-010. DMEM supplemented with 4.5 g of glucose, 10% fetal bovine serum (FBS) and 1% penicillin/streptomycin, was used to augment cell growth. Finally, the cells were incubated and grown in a humidified incubator containing 5% CO2 at 37 °C [50]. […] Cells were obtained from frozen stocks and cell passaging (up to P4) was performed at 80% cell confluency, using PBS and trypsin + 2.2-mM EDTA.
(§3) MTT assays were used to determine the cytotoxicity of the RP compounds, to PC cell lines, as previously described.

DU145 [3] = test: MTT cytotoxicity assay, DU145 prostate cancer cells; format: cell-based; conditions: means ± SDs of three independent experiments, read-out: IC50 ± SD, Prostate Cancer Cells, DU145
Method: as §2, §3

DU145 [4] = test: Time-dependent cell confluence (live cell imaging), DU145; format: cell-based
Method: The cytotoxicity of RP-010, over time, was determined using DU145 cells. The cells were seeded and incubated as previously described. The DU145 cells were incubated with vehicle or RP-010 for 72 h. The pictures were taken over time, at a snapshot interval of 15 min, from the same spot of the flask using the CytoSMART™ Lux 10X system (LONZA biosciences Walkersville, MD, USA) for live cell imaging.

PC-3 = test: Colony formation assay, PC-3; format: cell-based; conditions: 1 or 2 µM, vs vehicle, p < 0.01
Method: as §1

[5] = test system: Bak, Bax, Bcl2, caspase 3, PARP, cytochrome c in DU145 cells; test: Western analysis of apoptosis-regulating proteins, DU145; format: cell-based; conditions: 1 or 2 μM, 24 h
Method: DU145 cells were incubated with RP-010 ((1 or 2 µM) for 24 h. Thereafter, the cells were subjected to a two-step lysis process to extract and separate the cytosolic and the nuclear proteins, as previously described. Next, protein separation for both cytosolic and nuclear proteins was achieved by electrophoresing the samples through acrylamide SDS-PAGE gels, followed by transfer to a PVDF membrane. The PVDF membrane was then incubated overnight with the following primary antibodies: rabbit α-tubulin, 1:4000 dilution, rabbit BAX (1:1000), rabbit BAK (1:1000), rabbit cytochrome c (1:1000), rabbit PARP (1:5000), rabbit β-Catenin (1:4000), rabbit DVL3 (1:4000), rabbit LRP-6 (1:1000), rabbit P-LRP-6 (1:1000), rabbit c-Myc (1: 4000), rabbit cyclin B1 (1:2000), rabbit Wnt 5a (1:1000), rabbit naked 1 and naked 2 (1:1000), mouse E-cadherin (1:4000), mouse N-cadherin (1:4000), mouse β-actin (1:5000) and rabbit histone (1:3000). Finally, protein expression levels were determined as described previously. In the Figure 3, Figure 5 and Figure S8, the protein blots above β-actin were cytosolic lysates, while all the proteins below β-actin and above histones (loading controls) were nuclear lysates.

DU145 [6] = test: Transwell migration assay, DU145; format: cell-based; conditions: 0.5, 1 or 2 μM, 24 h
Method: The assay was done as previously described. The effect of RP-010, (0.5, 1 or 2 µM) on the migration of PC cells was tested using 24 trans-well inserts with an […] pore size. The addition of the insert to the well forms two chambers (upper and lower), where the upper chamber was used to grow the cells on the porous membrane. The lower chamber was filled with 600-μL cell-free DMEM medium. 200-μL of the cell suspension was added to each insert, and cells allowed to attach for 1 h. The test compound was added in different concentrations and incubated with the cells for 24 h. […] Finally, the remaining migrated cells were fixed by methanol, and stained with 0.1% crystal violet dye and counted with an EVOS microscope. The number of migrated cells was counted for the cultures incubated with vehicle or RP-010.

zebrafish = test: Zebrafish toxicity model; format: in vivo
Method: The zebrafish toxicity studies were conducted as previously described. Five days-post fertilization larvae (5 fish/well) were exposed to vehicle or RP-010 (0, 0.3, 1, 3, 6, and 10 µM). Subsequently, the zebrafish were observed visually, and pictures were taken at 24- and 48-hour post exposure (hpe). […] The zebrafish studies were approved by the University of Toledo Institutional Animal Care and Use Committee (#105414, approved on 10/2018).

**Q.** Which “Size of the colonies” value (DU145 [1]) does the source give for `COc1ccc(-c2nc3sc4c(c3c(=O)[nH]2)CCCC4)cc1` [RP10] here?
**A.** Its value is “significantly decreased”.

**Q.** And the Colony formation (DU145 [1]; p < 0.01)?
**A.** The Colony formation was “significantly decreased”.

**Q.** And the “Wound healing (cell migration)” value (DU145 [2])?
**A.** The value was “significant decrease”.

**Q.** What about the IC50 (HCT115) of the same molecule?
**A.** The IC50 was 700 ± 200 nM.

**Q.** What about the IC50 (CHO) of the same molecule?
**A.** The IC50 was 14 ± 1.3 µM.

**Q.** And the IC50 (DU145 [3]; Homo sapiens, DU-145, MTT assay)?
**A.** The IC50 was less than 1000 nM.

**Q.** And the IC50 (DU145 [3]; MTT assay)?
**A.** The IC50 was 500 ± 200 nM.

**Q.** What about the “Cell growth over time (confluence)” value (DU145 [4]; 0.5 µM, after 24 h of incubation, p < 0.05) of the same molecule?
**A.** Its value is “significantly decreased”.

**Q.** What about the “Cell growth over time (confluence)” value (DU145 [4]; 1 µM, after 12 h of incubation, p < 0.01) of the same molecule?
**A.** Its value is “significantly decreased”.

**Q.** What about the Colony formation rate (PC-3) of the same molecule?
**A.** Its Colony formation rate is “significantly decreased”.

**Q.** What about the “Expression of Bax” value [5] of the same molecule?
**A.** The value was “did not significantly alter”.

**Q.** And the “Levels of cytochrome c” value [5]?
**A.** Its value is “did not significantly alter”.

**Q.** And the “Levels of total cytosolic PARP” value [5]?
**A.** Its value is “significantly reduced”.

**Q.** What about the “Cleavage of caspase-3” value ([5]; p < 0.001) of the same molecule?
**A.** Its value is “significantly increased”.

**Q.** And the “Expression of Bcl2” value ([5]; p < 0.01)?
**A.** Its value is “significantly downregulated”.

**Q.** And the “Levels of cleaved nuclear PARP” value ([5]; p < 0.01)?
**A.** Its value is “increased”.

**Q.** And the “Levels of cleaved cytosolic PARP” value ([5]; p < 0.05)?
**A.** The value was “significantly increased”.

**Q.** And the “Expression level of Bak, increase” value ([5]; vs vehicle, p < 0.01)?
**A.** Its value is no less than 2 fold.

**Q.** And the “Number of cells migrating across the membrane (transwell)” value (DU145 [6])?
**A.** Its value is “significantly decreased”.

**Q.** And the “Concentration well tolerated / without significant toxic effects” value (zebrafish; zebrafish)?
**A.** The value was “up to 6 µM”.

**Q.** What about the Mortality (zebrafish; zebrafish larvae, 0.3, 1, 3, 6 or 10 µM, 24 and 48 h exposure) of the same molecule?
**A.** The Mortality was “did not significantly increase”.

— PMC6563099, “Novel Thienopyrimidine Derivative, RP-010, Induces β-Catenin Fragmentation and Is Efficacious against Prostate Cancer Cells” (Cancers, 2019)
